Drawing on PubChem BioAssay AID334 (DTP/NCI, 2004), this text covers T/C for 14 compounds.

This assay concerns CD2F1 mice, intracerebral P388 leukemia, median survival T/C%. In words: NCI In Vivo Anticancer Drug Screen. Data for tumor model P388 Leukemia (intracerebral) in CD2F1 (CDF1) mice. The settings on record: endpoint: median survival time, higher = longer survival. Here is the method: The antitumor activity of compounds was measured in mice bearing transplantable tumors. Survival or tumor size were measured and the results are expressed as the measurement made in the treated group (T) divided by the measurement made in the vehicle treated control group (C). The tumor model used in this assay is P388 Leukemia (intracerebral) in CD2F1 (CDF1) mice

Where [1] appears, read: dose: 8.0 mg/kg/injection, schedule: Q01DX009 (ip), vehicle: saline.
Setting [2] is: dose: 12.5 mg/kg/injection, schedule: Q01DX009 (ip), vehicle: saline.
[3] abbreviates: dose: 25.0 mg/kg/injection, schedule: Q01DX009 (ip), vehicle: saline.
[4] abbreviates: dose: 50.0 mg/kg/injection, schedule: Q01DX009 (ip), vehicle: saline.

The structures appear in SMILES notation. Where “and” joins values, the source holds several entries; their conditions need not be identical. Equal entries are not always repeated. Inconclusive results and toxic doses are left out.

On to `COc1cc(NC(=O)CN(CCCl)CCCl)cc(OC)c1OC`, for which the T/C by setting is: (dose: 12.5 mg/kg/injection, schedule: Q01DX009 (ip), vehicle: saline with Tween-80) 113 % of control and 102 % of control; (dose: 25.0 mg/kg/injection, schedule: Q01DX009 (ip), vehicle: saline with Tween-80) 104 % of control and 107 % of control; (dose: 50.0 mg/kg/injection, schedule: Q01DX009 (ip), vehicle: saline with Tween-80) 114 % of control and 118 % of control; (dose: 100.0 mg/kg/injection, schedule: Q01DX009 (ip), vehicle: saline with Tween-80) 114 % of control; (dose: 200.0 mg/kg/injection, schedule: Q01DX009 (ip), vehicle: saline with Tween-80) 87 % of control.
For the compound `O=C1C(=O)c2ccccc2C(O)=C1CC=C(Cl)Cl`, the T/C is, setting by setting: (dose: 10.0 mg/kg/injection, schedule: Q01DX005 (ip), vehicle: Klucel (hydroxypropylcellulose) (HPC)) 102 % of control and 109 % of control; (dose: 20.0 mg/kg/injection, schedule: Q01DX005 (ip), vehicle: Klucel (hydroxypropylcellulose) (HPC)) 96 % of control and 98 % of control; (dose: 40.0 mg/kg/injection, schedule: Q01DX005 (ip), vehicle: Klucel (hydroxypropylcellulose) (HPC)) 104 % of control and 105 % of control; (dose: 80.0 mg/kg/injection, schedule: Q01DX005 (ip), vehicle: Klucel (hydroxypropylcellulose) (HPC)) 100 % of control.
`CNc1nc(N(C)C)nc(N(C)C)n1`: the T/C is, setting by setting: under setting [1], 99 % of control; under setting [2], 101 % of control and 111 % of control; (dose: 16.0 mg/kg/injection, schedule: Q01DX009 (ip), vehicle: saline) 103 % of control; (dose: 32.0 mg/kg/injection, schedule: Q01DX009 (ip), vehicle: saline) 106 % of control; (dose: 64.0 mg/kg/injection, schedule: Q01DX009 (ip), vehicle: saline) 118 % of control.
In the case of `O=P1(NCCCl)OCCCN1CCCl` (stereo unspecified), the T/C (dose: 538.0 mg/kg/injection, schedule: Q01DX001 (ip), vehicle: saline) was 153 % of control.
On to `C[C@]1(O)CC[C@H]2[C@@H]3CCC4=CC(=O)CC[C@]4(C)[C@@]3(F)[C@@H](O)C[C@@]21C`, for which the T/C by setting is: (dose: 8.0 mg/kg/injection, schedule: Q01DX009 (ip), vehicle: saline with Tween-80) 100 % of control and 105 % of control; (dose: 16.0 mg/kg/injection, schedule: Q01DX009 (ip), vehicle: saline with Tween-80) 91 % of control and 109 % of control; (dose: 32.0 mg/kg/injection, schedule: Q01DX009 (ip), vehicle: saline with Tween-80) 96 % of control and 106 % of control; (dose: 64.0 mg/kg/injection, schedule: Q01DX009 (ip), vehicle: saline with Tween-80) 95 % of control and 104 % of control; (dose: 128.0 mg/kg/injection, schedule: Q01DX009 (ip), vehicle: saline with Tween-80) 91 % of control and 104 % of control; (dose: 256.0 mg/kg/injection, schedule: Q01DX009 (ip), vehicle: saline with Tween-80) 96 % of control and 106 % of control. The T/C (dose: 512.0 mg/kg/injection, schedule: Q01DX009 (ip), vehicle: saline with Tween-80) is 89 % of control and 104 % of control.
With `O=C1C=CN(C2OC(CO)C(O)C2O)C(=O)C1` (stereo unspecified), the T/C by setting is: under setting [2], 112 % of control; under setting [3], 106 % of control; under setting [4], 104 % of control; (dose: 100.0 mg/kg/injection, schedule: Q01DX009 (ip), vehicle: saline) 106 % of control; (dose: 200.0 mg/kg/injection, schedule: Q01DX009 (ip), vehicle: saline) 94 % of control; (dose: 400.0 mg/kg/injection, schedule: Q01DX009 (ip), vehicle: saline) 94 % of control.
Regarding `CS(=O)(=O)CS(=O)(=O)OCCCl`, the T/C reads like this: (dose: 6.25 mg/kg/injection, schedule: Q01DX009 (ip), vehicle: saline) 110 % of control; under setting [2], 114 % of control; under setting [3], 164 % of control; under setting [4], 203 % of control.
With `CCCCCCCCCCCCCCCCCC(=O)NC(Cc1ccc(N(CCCl)CCCl)cc1)C(=O)O` (stereo unspecified), the T/C was 110 % of control (dose: 1.88 mg/kg/injection, schedule: Q03HX008 (ip), vehicle: saline) and 115 % of control (dose: 3.75 mg/kg/injection, schedule: Q03HX008 (ip), vehicle: saline).
Take `CSCS(=O)C[C@H](CO)NC(=O)/C=C/c1c(C)[nH]c(=O)[nH]c1=O` (stereo partly specified): the T/C (dose: 0.06 mg/kg/injection, schedule: Q01DX005 (ip), vehicle: Klucel (hydroxypropylcellulose) (HPC)) is 103 % of control and 104 % of control; the T/C (dose: 0.12 mg/kg/injection, schedule: Q01DX005 (ip), vehicle: Klucel (hydroxypropylcellulose) (HPC)) was 101 % of control and 105 % of control; the T/C (dose: 0.25 mg/kg/injection, schedule: Q01DX005 (ip), vehicle: Klucel (hydroxypropylcellulose) (HPC)) is 107 % of control and 110 % of control; the T/C (dose: 0.5 mg/kg/injection, schedule: Q01DX005 (ip), vehicle: Klucel (hydroxypropylcellulose) (HPC)) is 106 % of control and 108 % of control.
Turning to `COc1cc(C[C@H]2c3cc(OC)c(OC)cc3CCN2C)c(Oc2cc3c(cc2OC)-c2c(OC)c(OC)cc4c2[C@H](C3)N(C)CC4)cc1OC`, the T/C was 102 % of control and 106 % of control and 107 % of control (dose: 50.0 mg/kg/injection, schedule: Q01DX005 (ip), vehicle: Klucel (hydroxypropylcellulose) (HPC)); 96 % of control and 101 % of control and 104 % of control (dose: 200.0 mg/kg/injection, schedule: Q01DX005 (ip), vehicle: Klucel (hydroxypropylcellulose) (HPC)).
Consider `CCCCCCC(=O)O[C@H]1CC[C@H]2[C@@H]3CCC4=CC(=O)CC[C@]4(C)[C@H]3CC[C@]12C`, for which the T/C is, setting by setting: (dose: 8.0 mg/kg/injection, schedule: Q01DX009 (ip), vehicle: saline + alcohol) 122 % of control and 103 % of control; (dose: 16.0 mg/kg/injection, schedule: Q01DX009 (ip), vehicle: saline + alcohol) 118 % of control and 105 % of control; (dose: 32.0 mg/kg/injection, schedule: Q01DX009 (ip), vehicle: saline + alcohol) 120 % of control and 102 % of control; (dose: 64.0 mg/kg/injection, schedule: Q01DX009 (ip), vehicle: saline + alcohol) 114 % of control and 100 % of control; (dose: 128.0 mg/kg/injection, schedule: Q01DX009 (ip), vehicle: saline + alcohol) 118 % of control and 112 % of control.
Regarding `O=C1NC2(CCCCC2)C(=O)N1CCN(CCCl)CCCl`, the T/C runs as follows: (dose: 1.25 mg/kg/injection, schedule: Q01DX005 (iv), vehicle: clinical formulation) 112 % of control; (dose: 1.25 mg/kg/injection, schedule: Q01DX009 (ip), vehicle: clinical formulation) 103 % of control; (dose: 1.25 mg/kg/injection, schedule: Q01DX009 (ip), vehicle: saline with Tween-80) 98 % of control; (dose: 1.5 mg/kg/injection, schedule: Q01DX009 (ip), vehicle: saline) 107 % of control; (dose: 2.5 mg/kg/injection, schedule: Q01DX005 (iv), vehicle: clinical formulation) 106 % of control; (dose: 2.5 mg/kg/injection, schedule: Q01DX009 (ip), vehicle: clinical formulation) 101 % of control. Further, the T/C was 110 % of control (dose: 2.5 mg/kg/injection, schedule: Q01DX009 (ip), vehicle: saline with Tween-80); 160 % of control (dose: 5.0 mg/kg/injection, schedule: Q01DX005 (iv), vehicle: clinical formulation); 103 % of control (dose: 5.0 mg/kg/injection, schedule: Q01DX009 (ip), vehicle: clinical formulation); 112 % of control (dose: 5.0 mg/kg/injection, schedule: Q01DX009 (ip), vehicle: saline with Tween-80); 117 % of control (dose: 6.0 mg/kg/injection, schedule: Q01DX009 (ip), vehicle: saline); 124 % of control (dose: 10.0 mg/kg/injection, schedule: Q01DX009 (ip), vehicle: saline with Tween-80). Besides, the T/C (dose: 20.0 mg/kg/injection, schedule: Q01DX009 (ip), vehicle: saline with Tween-80) is 103 % of control.
With `c1ccc([C@H]2CN3CCSC3=N2)cc1`, the T/C by setting is: (dose: 5.0 mg/kg/injection, schedule: Q01DX009 (ip), vehicle: saline) 113 % of control and 101 % of control and 102 % of control; (dose: 10.0 mg/kg/injection, schedule: Q01DX005 (ip), vehicle: saline) 105 % of control and 107 % of control; (dose: 10.0 mg/kg/injection, schedule: Q01DX009 (ip), vehicle: saline) 97 % of control and 100 % of control and 106 % of control; (dose: 20.0 mg/kg/injection, schedule: Q01DX005 (ip), vehicle: saline) 98 % of control and 102 % of control; (dose: 20.0 mg/kg/injection, schedule: Q01DX009 (ip), vehicle: saline) 113 % of control and 92 % of control and 103 % of control; (dose: 40.0 mg/kg/injection, schedule: Q01DX005 (ip), vehicle: saline) 97 % of control.
With `N[C@H](C(=O)O)[C@@H]1CC(Cl)=NO1`, the T/C (dose: 4.0 mg/kg/injection, schedule: Q01DX009 (ip), vehicle: saline) was 168 % of control and the T/C under setting [1] was 114 % of control.
